Like-named read-outs stand apart in the source and are kept apart here.
Key:
[1] = DPPH radical scavenging assay; format: biochemical; settings: mean ± SEM of three experiments
Method: The antioxidant potential of all target compounds (3–9) was determined using DPPH radical scavenging assay in comparison with ascorbic acid (AA) as the control treatment.
The mechanism of antioxidants as DPPH radical scavengers is based on their hydrogen-donation ability as hydrogen atoms or an electron transfer from the compound to the DPPH to form DPPH-H. The results of DPPH reduction are presented in Table 2, Figure 7.
The DPPH scavenging activity of all novel synthesized compounds (3–9) was measured as previously described (see Supplementary Materials).
1-Biological Evaluation Details: a-In-vitro Assays for biological antioxidant Activity
- DPPH scavenging method.
A 96-well plate was filled with 100 µL of the investigated compounds at various concentrations (12.5, 25, 50, 100, and 200 µg/mL ). The plate was then incubated at room temperature for 30 min while being protected from light by adding 100 µL of 100µM DPPH methanolic solution to each well. At a λ517 nm. the solution's absorbance was measured.
The positive control was ascorbic acid, and the negative control was DMSO. According to the following equation, the percentage of DPPH scavenging activity was determined:
% of DPPH scavenging = [(A control -A sample) / A control] x100. where A control is the absorbance of the control reaction (with all reagents except the test compound), and A sample is the absorbance of the test sample. Linear regression analysis was performed to calculate drug concentration showing 50% free radical inhibition activity (IC50). All tests were performed in triplicates. […]

[2] = Hydrogen peroxide scavenging assay; format: biochemical; settings: mean ± SEM of three experiments
Method: H2O2 assay is used to estimate the scavenging power of the target compounds (4–9) to H2O2.
The hydrogen peroxide (H2O2) scavenging activity of all novel synthesized compounds 3–9 was measured as previously reported (see Supplementary Materials).
1-Biological Evaluation Details: a-In-vitro Assays for biological antioxidant Activity […]
Linear regression analysis was performed to calculate drug concentration showing 50% free radical inhibition activity (IC50). All tests were performed in triplicates.
-Scavenging of hydrogen peroxide
In this method, the decay or loss of hydrogen peroxide can be quantified spectrophotometrically at 230 nm when a scavenger is incubated with it. The procedure was applied with a few changes. In phosphate buffered saline, hydrogen […]
peroxide (20 mM) solution was prepared in phosphate buffered saline (PBS, pH 7.4). In order to make different concentrations of 1 ml of the tested substances (3–9) or standards in methanol, 2 ml of hydrogen peroxide solution in PBS was added. After 10 minutes, the absorbance of H2O2 was measured at 230 nm in comparison to an ascorbic acid (AA) reference solution that contained phosphate buffer but no H2O2.
% of H2O2 scavenging = [(A control -A sample) / A control] x100. […]

[3] = Lipid peroxidation assay (FeCl2/H2O2-stimulated linoleic acid peroxidation); format: biochemical; settings: mean ± SEM of three experiments
Soybean 15-LOX enzyme = target: T1, Soybean 15-LOX enzyme (Glycine max, UniProt P08170); test: In vitro 15-lipoxygenase inhibition (Cayman Lipoxygenase Inhibitor Screening Assay Kit); format: biochemical; settings: for IC50: Soybean 15-LOX, arachidonic acid substrate, mean ± SEM of three experiments; for 15-LOX inhibitory activity relative to quercetin: fold that of quercetin
T1 construct: purchased Cayman Chemical 760700
T1 sequence (P08170 1-839): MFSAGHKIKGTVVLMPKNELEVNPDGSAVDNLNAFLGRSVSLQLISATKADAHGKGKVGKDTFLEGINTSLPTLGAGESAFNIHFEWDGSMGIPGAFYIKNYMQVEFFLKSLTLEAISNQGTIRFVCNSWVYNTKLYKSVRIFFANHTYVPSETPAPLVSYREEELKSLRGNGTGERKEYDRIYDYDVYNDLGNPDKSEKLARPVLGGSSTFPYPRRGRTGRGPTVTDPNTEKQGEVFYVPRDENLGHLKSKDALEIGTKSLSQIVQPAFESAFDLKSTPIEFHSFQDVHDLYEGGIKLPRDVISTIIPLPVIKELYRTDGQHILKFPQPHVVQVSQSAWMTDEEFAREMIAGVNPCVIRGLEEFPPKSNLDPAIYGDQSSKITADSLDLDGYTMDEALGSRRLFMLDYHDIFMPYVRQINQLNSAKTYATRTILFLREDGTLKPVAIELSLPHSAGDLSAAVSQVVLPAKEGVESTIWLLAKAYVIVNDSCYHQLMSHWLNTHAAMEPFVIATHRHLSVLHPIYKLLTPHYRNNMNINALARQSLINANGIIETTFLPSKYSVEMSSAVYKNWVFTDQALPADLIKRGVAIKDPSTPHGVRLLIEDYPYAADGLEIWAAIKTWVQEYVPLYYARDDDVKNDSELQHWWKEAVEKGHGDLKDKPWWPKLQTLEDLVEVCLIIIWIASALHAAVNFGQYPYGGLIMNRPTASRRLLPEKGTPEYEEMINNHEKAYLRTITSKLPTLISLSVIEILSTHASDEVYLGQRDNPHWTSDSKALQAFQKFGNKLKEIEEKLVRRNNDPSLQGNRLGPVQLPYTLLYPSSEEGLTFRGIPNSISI
Method: 90 µL of 15-LOX was pipetted into a 96-well plate quickly. The test chemical was then dissolved in DMSO in 10 µL portions at concentrations of 2.5 µM, 5.0 µM, and 10 µM and added to each well. Arachidonic acid, a 110 µL substrate, was added to start the reaction, and the plate was shaken for at least five minutes. In order to interrupt enzyme catalysis and advance the reaction, 100 µL of chromogen was added to each well and made in accordance with the manufacturer’s instructions. In blank wells, 100 µL of assay buffer (0.1 M Tris-HCl, pH 7.4) was utilized. […] The solution’s absorbance was determined at λ 490–500 nm. The percentage inhibition was calculated according to the following equation:% inhibition = [(IA − Ainhibitor sample)/IA] × 100(1) where (IA) is the 100% initial activity and (Ainhibitor sample) is the absorbance of the test sample. A dose-response curve was plotted between % inhibition and the drug concentration. The non-linear dose-response curve was used for calculating drug concentration showing 50% enzyme inhibition.

[4] = parameters: method as in PMID 23248677; settings: cited from earlier work
human 15-LOX = settings: cited from earlier work
15-LOX-1 [5] = tested on: 15-LOX-1; parameters: method as in PMID 26560362; settings: human; cited from earlier work
15-LOX-1 [6] = tested on: 15-LOX-1; parameters: method as in PMID 26560362; settings: cited from earlier work
15-LOX-1 [7] = tested on: 15-LOX-1; parameters: method as in PMID 26560362; settings: rabbit enzyme; cited from earlier work

SMILES: Cc1cccc(-c2cc(-c3cccc(NS(=O)(=O)c4c[nH]c(=S)[nH]c4=O)c3)[nH]c(=O)c2C#N)c1 [Compound 6d, N-{3-[5-cyano-4-(3-methylphenyl)-6-oxo-1,6-dihydropyridin-2-yl]phenyl}-4-oxo-2-thioxo-1,2,3,4-tetrahydropyrimidine-5-sulfonamide]
- DPPH IC50 [1]: 21.0 ± 0.5 µg/mL
- H2O2 IC50 [2]: 28.8 ± 1.05 µg/mL
- Lipid Peroxidation IC50 [3]: 38.0 ± 1.42 µg/mL
- IC50 (Soybean 15-LOX enzyme): 7500 ± 40 nM
- melting point: 282 to 284 °C

SMILES: N#Cc1c(-c2cccc([N+](=O)[O-])c2)cc(-c2cccc(NS(=O)(=O)c3c[nH]c(=S)[nH]c3=O)c2)nc1N [Compound 7a, N-{3-[6-amino-5-cyano-4-(3-nitrophenyl)pyridine-2-yl]phenyl}-4-oxo-2-thioxo-1,2,3,4-tetrahydropyrimidine-5-sulfonamides]
- DPPH IC50 [1]: 25.5 ± 1.16 µg/mL
- H2O2 IC50 [2]: 26.0 ± 1.28 µg/mL
- Lipid Peroxidation IC50 [3]: 37.6 ± 1.2 µg/mL
- IC50 (Soybean 15-LOX enzyme): 6950 ± 70 nM
- melting point: 251 to 253 °C

SMILES: N#Cc1c(-c2cccc(Cl)c2)cc(-c2cccc(NS(=O)(=O)c3c[nH]c(=S)[nH]c3=O)c2)nc1N [Compound 7b, N-{3-[6-amino-5-cyano-4-(3-chlorophenyl)pyridine-2-yl]phenyl}-4-oxo-2-thioxo-1,2,3,4-tetrahydropyrimidine-5-sulfonamides]
- DPPH IC50 [1]: 19.50 ± 1.06 µg/mL
- H2O2 IC50 [2]: 25.0 ± 1.35 µg/mL
- Lipid Peroxidation IC50 [3]: 37.3 ± 1.3 µg/mL
- IC50 (Soybean 15-LOX enzyme): 6700 ± 10 nM
- melting point: 257 to 259 °C

SMILES: N#Cc1c(-c2cccc(F)c2)cc(-c2cccc(NS(=O)(=O)c3c[nH]c(=S)[nH]c3=O)c2)nc1N [Compound 7c, N-{3-[6-amino-5-cyano-4-(3-fluorophenyl)pyridine-2-yl]phenyl}-4-oxo-2-thioxo-1,2,3,4-tetrahydropyrimidine-5-sulfonamides]
- DPPH IC50 [1]: 17.7 ± 1.4 µg/mL
- H2O2 IC50 [2]: 24.0 ± 1.40 µg/mL
- Lipid Peroxidation IC50 [3]: 36.9 ± 1.72 µg/mL
- IC50 (Soybean 15-LOX enzyme): 6910 ± 20 nM
- melting point: 268 to 270 °C

SMILES: Cc1cccc(-c2cc(-c3cccc(NS(=O)(=O)c4c[nH]c(=S)[nH]c4=O)c3)nc(N)c2C#N)c1 [Compound 7d, N-{3-[6-amino-5-cyano-4-(3-methylphenyl)pyridine-2-yl]phenyl}-4-oxo-2-thioxo-1,2,3,4-tetrahydropyrimidine-5-sulfonamides]
- DPPH IC50 [1]: 17.0 ± 1.63 µg/mL
- H2O2 IC50 [2]: 23.9 ± 1.34 µg/mL
- Lipid Peroxidation IC50 [3]: 36.4 ± 1.33 µg/mL
- IC50 (Soybean 15-LOX enzyme): 6600 ± 50 nM
- melting point: 264 to 266 °C

SMILES: O=c1[nH]c(=S)[nH]cc1S(=O)(=O)Nc1cccc(-c2csc(NN=Cc3cccc([N+](=O)[O-])c3)n2)c1 [Compound 9a, N-(3-{2-[(2E)-2(3-nitrobenzylidene)hydrazine]-1,3-thiazol-4-yl}phenyl)-4-oxo-thioxo-1,2,3,4-tetrahydropyrimidine-5-sulfonamides]
- DPPH IC50 [1]: 15.0 ± 1.25 µg/mL
- H2O2 IC50 [2]: 20.0 ± 1.40 µg/mL
- Lipid Peroxidation IC50 [3]: 22.0 ± 1.40 µg/mL
- IC50 (Soybean 15-LOX enzyme): 2900 ± 80 nM
- melting point: 316 to 318 °C

SMILES: O=c1[nH]c(=S)[nH]cc1S(=O)(=O)Nc1cccc(-c2csc(NN=Cc3cccc(Cl)c3)n2)c1 [Compound 9b, N-(3-{2-[(2E)-2(3-chlorobenzylidene)hydrazine]-1,3-thiazol-4-yl}phenyl)-4-oxo-thioxo-1,2,3,4-tetrahydropyrimidine-5-sulfonamides]
- DPPH IC50 [1]: 11.9 ± 1.40 µg/mL
- H2O2 IC50 [2]: 18.0 ± 0.72 µg/mL
- Lipid Peroxidation IC50 [3]: 21.0 ± 1.45 µg/mL
- IC50 (Soybean 15-LOX enzyme): 1800 ± 60 nM
- 15-LOX inhibitory activity relative to quercetin (Soybean 15-LOX enzyme): 2.0 fold
- melting point: 320 to 322 °C

SMILES: O=c1[nH]c(=S)[nH]cc1S(=O)(=O)Nc1cccc(-c2csc(NN=Cc3cccc(F)c3)n2)c1 [Compound 9c, N-(3-{2-[(2E)-2(3-fluorobenzylidene)hydrazine]-1,3-thiazol-4-yl}phenyl)-4-oxo-thioxo-1,2,3,4-tetrahydropyrimidine-5-sulfonamides]
- DPPH IC50 [1]: 10.0 ± 0.83 µg/mL
- H2O2 IC50 [2]: 16.0 ± 1.20 µg/mL
- Lipid Peroxidation IC50 [3]: 20.5 ± 1.48 µg/mL
- IC50 (Soybean 15-LOX enzyme): 1950 ± 60 nM
- 15-LOX inhibitory activity relative to quercetin (Soybean 15-LOX enzyme): 1.84 fold
- melting point: 317 to 319 °C

SMILES: Cc1cccc(C=NNc2nc(-c3cccc(NS(=O)(=O)c4c[nH]c(=S)[nH]c4=O)c3)cs2)c1 [Compound 9d, N-(3-{2-[(2E)-2(3-methylbenzylidene)hydrazine]-1,3-thiazol-4-yl}phenyl)-4-oxo-thioxo-1,2,3,4-tetrahydropyrimidine-5-sulfonamides]
- DPPH IC50 [1]: 7.55 ± 1.70 µg/mL
- H2O2 IC50 [2]: 15.0 ± 0.89 µg/mL
- Lipid Peroxidation IC50 [3]: 20.0 ± 1.56 µg/mL
- IC50 (Soybean 15-LOX enzyme): 2500 ± 30 nM
- melting point: 326 to 328 °C

SMILES: CC1=C(C(=O)OC(C)C)C(c2ccco2)NC(=S)N1 (centres unmarked) [XII]
- antioxidant activity IC50 [4]: 600 µg/mL

SMILES: COc1ccc(-c2cc3cc(F)c(F)cc3[nH]2)cc1NS(=O)(=O)c1cccs1 [XIV]
- IC50 (human 15-LOX; read-out: 15-LOX IC50): 7 nM

SMILES: O=c1c2cnc(N3CCOCC3)nc2sn1CCN1CCCCC1 [XIX]
- IC50 (15-LOX-1 [5]): 120 nM

SMILES: c1csc(C2CSC(c3nc4ccccc4[nH]3)=N2)c1 (centres unmarked) [XVIII]
- IC50 (15-LOX-1 [6]): 96 nM

SMILES: COc1ccc(-c2cc3cc(F)c(F)cc3[nH]2)cc1NC(=S)Nc1cccc(C(=O)O)c1 [XVII]
- IC50 (15-LOX-1 [7]): 2 nM

SMILES: O=S(=O)(Nc1cccc(-c2nc3cccnc3[nH]2)c1)c1cccs1 [XVI]
- IC50 (human 15-LOX; read-out: 15-LOX IC50): 10000 nM

SMILES: CCCCCc1ccc(S(=O)(=O)NCCc2nc(-c3ccccc3)[nH]c2-c2ccc(OC)cc2)cc1 [XV]
- IC50 (human 15-LOX; AA, read-out: 15-LOX IC50 (AA)): 50 nM
- IC50 (human 15-LOX; LA, read-out: 15-LOX IC50 (LA)): 17 nM

SMILES: O=C(O)c1cc(O)c(O)c(O)c1 [gallic acid]
- antioxidant activity IC50 [4]: 0.8 µg/mL
